Where two headings read alike, the source gives them in different places.

The results in this text go back to patent US9157077B2, “Aminopyrimidine kinase inhibitors” (Jasco Pharmaceuticals, LLC, priority 2009, dated 2015).

Common to all, as to format: biochemical
Test [1] has as its target Enzyme (kinases of Table 29) (Homo sapiens, UniProt P78368). The test can be described thus: Percent Activity of Enzyme When Treated with 300 nM of Compound (ATP present at Km of enzyme), Table 29. The following applies: CK1γ2(h).
Test [2] deals with Enzyme (kinases of Table 29). Described as above.
Test [3] has as its target Enzyme (kinases of Table 30). The test can be described thus: IC50 of Compound (nM) (ATP present at Km of enzyme), Table 30. As to conditions: ATP present at Km of enzyme.

Sequence of Enzyme (kinases of Table 29) (Homo sapiens, UniProt P78368) (P78368 whole entry): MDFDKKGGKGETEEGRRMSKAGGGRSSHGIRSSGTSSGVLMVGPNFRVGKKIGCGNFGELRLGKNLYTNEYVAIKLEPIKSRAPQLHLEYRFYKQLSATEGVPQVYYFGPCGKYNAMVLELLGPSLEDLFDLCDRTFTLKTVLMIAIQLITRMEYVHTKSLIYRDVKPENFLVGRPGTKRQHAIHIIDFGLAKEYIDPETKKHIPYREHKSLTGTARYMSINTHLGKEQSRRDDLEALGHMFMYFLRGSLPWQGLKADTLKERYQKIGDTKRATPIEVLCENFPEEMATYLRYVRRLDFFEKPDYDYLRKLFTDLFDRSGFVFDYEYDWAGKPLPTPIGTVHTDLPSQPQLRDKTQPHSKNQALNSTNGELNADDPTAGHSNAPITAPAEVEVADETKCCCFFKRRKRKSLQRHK

As for `CN(C)CCOc1cc(/C=C2\SC(=O)NC2=O)nc(N2CCN(S(=O)(=O)c3ccccc3)CC2)n1` [compound 214, (Z)-5-((6-(2-(dimethylamino)ethoxy)-2-(4-(phenylsulfonyl)piperazin-1-yl)pyrimidin-4-yl)methylene)thiazolidine-2,4-dione], the “Percent Activity of Enzyme, CK1γ2(h)” value in test [1] was 41%. Further, the “Percent Activity of Enzyme, CK1(y)” value in test [2] (CK1(y)) was 79%. In addition, the “Percent Activity of Enzyme, CK2(h)” value in test [2] (CK2(h)) was found to be 77%. Further, in test [2] (Pim-1(h)), the “Percent Activity of Enzyme, Pim-1(h)” value is reported as 25%. In test [2] (Pim-2(h)), the “Percent Activity of Enzyme, Pim-2(h)” value is 13%. The “Percent Activity of Enzyme, Pim-3(h)” value in test [2] (Pim-3(h)) was found to be 16%. Moreover, the IC50 in test [3] (Pim-1(h), read-out: IC50 of Compound, Pim-1(h)) came out at 95 nM; in test [3] (Pim-2(h), read-out: IC50 of Compound, Pim-2(h)), 35 nM; in test [3] (Pim-3(h), read-out: IC50 of Compound, Pim-3(h)), 60 nM.

The term IC50 denotes the midpoint of a concentration-inhibition curve.
